Results: patent US10168342B2, “Lipid probes and uses thereof” (THE SCRIPPS RESEARCH INSTITUTE, priority 2015, dated 2019)
Where two headings read alike, the source gives them in different places.

How the values were obtained:
[1] = target: AEA-DA lipid probe targets in Neuro2a cells (Mus musculus, UniProt P62814)
[2] = target: T1, AEA-DA lipid probe targets in Neuro2a cells (Mus musculus, UniProt Q0VGU4)
T1 sequence (Q0VGU4 24-617): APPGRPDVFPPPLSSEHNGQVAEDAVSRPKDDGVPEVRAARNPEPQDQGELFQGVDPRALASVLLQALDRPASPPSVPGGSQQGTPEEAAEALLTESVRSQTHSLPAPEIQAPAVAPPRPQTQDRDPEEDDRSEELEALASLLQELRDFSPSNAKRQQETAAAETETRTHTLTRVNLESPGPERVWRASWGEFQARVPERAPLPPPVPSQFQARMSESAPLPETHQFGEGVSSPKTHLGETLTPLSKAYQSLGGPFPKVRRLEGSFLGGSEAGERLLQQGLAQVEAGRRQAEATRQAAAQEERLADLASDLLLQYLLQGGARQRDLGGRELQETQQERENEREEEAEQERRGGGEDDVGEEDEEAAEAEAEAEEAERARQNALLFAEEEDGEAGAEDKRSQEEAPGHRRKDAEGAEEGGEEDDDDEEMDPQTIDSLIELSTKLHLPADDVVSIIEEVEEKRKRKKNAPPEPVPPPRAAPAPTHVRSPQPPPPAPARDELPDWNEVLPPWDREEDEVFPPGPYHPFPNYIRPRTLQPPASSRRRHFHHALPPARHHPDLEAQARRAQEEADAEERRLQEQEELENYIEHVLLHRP

[3] = target: T2, AEA-DA lipid probe targets in Neuro2a cells (Mus musculus, UniProt Q3V009)
T2 sequence (Q3V009 25-227): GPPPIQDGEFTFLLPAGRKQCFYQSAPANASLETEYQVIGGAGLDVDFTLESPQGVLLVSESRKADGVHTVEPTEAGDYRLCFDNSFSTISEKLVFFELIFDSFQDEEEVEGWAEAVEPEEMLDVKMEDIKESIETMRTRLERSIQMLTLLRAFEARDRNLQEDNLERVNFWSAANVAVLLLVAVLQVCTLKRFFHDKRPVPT

[4] = target: AEA-DA lipid probe targets in Neuro2a cells (Mus musculus, UniProt Q60932); conditions: Neuro2a cells, AEA-DA probe
Sequence of AEA-DA lipid probe targets in Neuro2a cells (Mus musculus, UniProt Q60932) (Q60932 whole entry): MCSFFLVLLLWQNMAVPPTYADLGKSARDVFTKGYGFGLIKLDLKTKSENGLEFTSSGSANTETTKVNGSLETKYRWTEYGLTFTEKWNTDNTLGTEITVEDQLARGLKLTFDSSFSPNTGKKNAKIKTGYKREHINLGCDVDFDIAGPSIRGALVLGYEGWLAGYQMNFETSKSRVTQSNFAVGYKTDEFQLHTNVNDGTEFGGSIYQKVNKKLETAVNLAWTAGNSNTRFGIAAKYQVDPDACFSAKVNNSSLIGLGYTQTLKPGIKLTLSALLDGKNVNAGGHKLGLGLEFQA

[5] = target: AEA-DA lipid probe targets in Neuro2a cells (Mus musculus, UniProt Q6PA06)
Sequence of AEA-DA lipid probe targets in Neuro2a cells (Mus musculus, UniProt Q6PA06) (Q6PA06 whole entry): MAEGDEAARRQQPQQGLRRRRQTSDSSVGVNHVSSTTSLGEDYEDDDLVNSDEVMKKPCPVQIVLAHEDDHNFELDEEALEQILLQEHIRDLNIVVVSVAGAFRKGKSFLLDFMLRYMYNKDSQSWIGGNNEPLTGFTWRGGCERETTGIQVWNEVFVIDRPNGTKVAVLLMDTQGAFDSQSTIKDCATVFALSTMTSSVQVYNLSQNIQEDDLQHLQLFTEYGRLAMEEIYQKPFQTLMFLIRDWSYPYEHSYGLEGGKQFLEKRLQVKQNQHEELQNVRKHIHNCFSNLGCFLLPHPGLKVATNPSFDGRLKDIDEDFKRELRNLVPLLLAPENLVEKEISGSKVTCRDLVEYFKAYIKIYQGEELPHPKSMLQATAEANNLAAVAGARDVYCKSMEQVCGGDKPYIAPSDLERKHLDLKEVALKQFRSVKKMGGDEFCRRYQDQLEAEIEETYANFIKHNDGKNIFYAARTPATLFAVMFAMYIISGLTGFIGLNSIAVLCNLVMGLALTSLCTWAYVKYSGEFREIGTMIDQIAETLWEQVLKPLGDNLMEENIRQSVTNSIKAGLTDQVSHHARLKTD

[6] = target: AEA-DA lipid probe targets in Neuro2a cells (Mus musculus, UniProt Q8BMS1)
Sequence of AEA-DA lipid probe targets in Neuro2a cells (Mus musculus, UniProt Q8BMS1) (Q8BMS1 37-763): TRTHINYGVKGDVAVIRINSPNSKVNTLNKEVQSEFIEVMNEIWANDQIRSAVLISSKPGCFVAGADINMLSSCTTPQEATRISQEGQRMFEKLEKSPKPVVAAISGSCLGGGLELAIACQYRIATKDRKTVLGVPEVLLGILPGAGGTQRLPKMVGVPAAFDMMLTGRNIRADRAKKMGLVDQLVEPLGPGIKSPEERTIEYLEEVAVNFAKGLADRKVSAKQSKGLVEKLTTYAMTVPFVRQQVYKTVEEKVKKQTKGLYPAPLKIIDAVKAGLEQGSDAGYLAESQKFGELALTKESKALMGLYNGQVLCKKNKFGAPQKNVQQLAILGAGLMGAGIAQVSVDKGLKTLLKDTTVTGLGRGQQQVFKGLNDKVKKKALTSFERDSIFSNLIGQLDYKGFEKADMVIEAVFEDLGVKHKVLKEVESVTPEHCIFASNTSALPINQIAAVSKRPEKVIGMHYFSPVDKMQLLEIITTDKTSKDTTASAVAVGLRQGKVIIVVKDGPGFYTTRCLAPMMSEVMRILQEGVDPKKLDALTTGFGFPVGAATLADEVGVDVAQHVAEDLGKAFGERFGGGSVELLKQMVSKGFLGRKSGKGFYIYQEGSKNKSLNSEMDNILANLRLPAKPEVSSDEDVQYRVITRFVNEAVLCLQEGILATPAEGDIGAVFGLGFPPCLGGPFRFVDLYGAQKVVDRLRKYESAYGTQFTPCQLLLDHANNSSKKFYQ

[7] = target: T3, AEA-DA lipid probe targets in Neuro2a cells (Mus musculus, UniProt Q8VHE0)
T3 sequence (Q8VHE0 1-760): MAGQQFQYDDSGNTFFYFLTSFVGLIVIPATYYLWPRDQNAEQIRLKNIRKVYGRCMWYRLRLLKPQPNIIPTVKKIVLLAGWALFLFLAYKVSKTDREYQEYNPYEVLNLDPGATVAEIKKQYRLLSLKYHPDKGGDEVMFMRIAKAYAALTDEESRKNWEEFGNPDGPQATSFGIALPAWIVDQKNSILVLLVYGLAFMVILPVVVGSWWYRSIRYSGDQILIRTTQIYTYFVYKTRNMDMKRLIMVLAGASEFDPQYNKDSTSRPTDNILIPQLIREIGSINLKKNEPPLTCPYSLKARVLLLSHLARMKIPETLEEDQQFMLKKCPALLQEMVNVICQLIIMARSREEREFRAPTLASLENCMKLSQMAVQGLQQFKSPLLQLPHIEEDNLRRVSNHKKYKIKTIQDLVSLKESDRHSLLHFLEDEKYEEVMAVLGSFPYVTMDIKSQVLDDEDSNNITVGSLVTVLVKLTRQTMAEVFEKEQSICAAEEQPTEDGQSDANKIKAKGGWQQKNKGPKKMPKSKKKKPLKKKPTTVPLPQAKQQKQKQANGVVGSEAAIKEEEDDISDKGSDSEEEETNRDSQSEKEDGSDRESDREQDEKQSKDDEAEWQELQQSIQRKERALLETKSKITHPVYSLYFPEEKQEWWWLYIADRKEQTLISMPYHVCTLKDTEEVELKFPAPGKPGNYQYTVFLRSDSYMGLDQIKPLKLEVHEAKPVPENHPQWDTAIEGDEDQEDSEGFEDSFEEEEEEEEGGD

[8] = target: T4, AEA-DA lipid probe targets in Neuro2a cells (Mus musculus, UniProt Q91V01); conditions: for SILAC ratio, LPCAT3 (Q6P1A2): Neuro2a cells, AEA-DA probe
T4 sequence (Q91V01 1-487): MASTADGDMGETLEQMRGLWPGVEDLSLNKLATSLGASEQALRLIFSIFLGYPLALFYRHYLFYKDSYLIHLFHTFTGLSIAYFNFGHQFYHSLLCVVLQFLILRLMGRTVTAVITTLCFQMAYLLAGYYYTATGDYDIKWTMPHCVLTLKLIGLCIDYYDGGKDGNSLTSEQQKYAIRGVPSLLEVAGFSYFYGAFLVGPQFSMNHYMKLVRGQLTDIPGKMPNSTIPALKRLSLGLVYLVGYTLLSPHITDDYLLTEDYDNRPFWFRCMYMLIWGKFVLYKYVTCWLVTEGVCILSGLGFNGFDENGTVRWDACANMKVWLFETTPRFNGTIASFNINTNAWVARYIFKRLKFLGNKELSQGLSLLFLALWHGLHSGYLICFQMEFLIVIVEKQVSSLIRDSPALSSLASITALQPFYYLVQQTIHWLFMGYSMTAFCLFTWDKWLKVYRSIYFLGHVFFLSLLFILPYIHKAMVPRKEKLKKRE

[9] = target: AEA-DA lipid probe targets in Neuro2a cells (Mus musculus, UniProt Q9DCH4)
Sequence of AEA-DA lipid probe targets in Neuro2a cells (Mus musculus, UniProt Q9DCH4) (Q9DCH4 whole entry): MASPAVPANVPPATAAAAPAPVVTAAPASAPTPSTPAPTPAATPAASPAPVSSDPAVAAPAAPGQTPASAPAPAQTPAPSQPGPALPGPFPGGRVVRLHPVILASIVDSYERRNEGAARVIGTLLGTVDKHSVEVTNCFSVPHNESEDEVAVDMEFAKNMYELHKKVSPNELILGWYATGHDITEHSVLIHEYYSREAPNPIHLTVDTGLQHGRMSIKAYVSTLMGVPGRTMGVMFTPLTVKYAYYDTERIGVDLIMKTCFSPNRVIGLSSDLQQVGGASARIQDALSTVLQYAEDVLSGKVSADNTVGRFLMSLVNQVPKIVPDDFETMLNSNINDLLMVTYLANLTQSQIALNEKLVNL

[10] = target: T5, AEA-DA lipid probe targets in Neuro2a cells (Mus musculus, UniProt Q9R0P6); conditions: for SILAC ratio, SEC11A (P67812): Neuro2a cells, AEA-DA probe
T5 sequence (Q9R0P6 1-179): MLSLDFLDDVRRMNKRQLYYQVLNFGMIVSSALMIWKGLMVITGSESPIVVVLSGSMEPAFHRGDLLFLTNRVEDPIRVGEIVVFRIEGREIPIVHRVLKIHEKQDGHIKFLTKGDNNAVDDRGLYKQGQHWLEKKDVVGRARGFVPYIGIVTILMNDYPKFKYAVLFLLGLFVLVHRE

Sequence of AEA-DA lipid probe targets in Neuro2a cells (Mus musculus, UniProt P62814) (P62814 whole entry): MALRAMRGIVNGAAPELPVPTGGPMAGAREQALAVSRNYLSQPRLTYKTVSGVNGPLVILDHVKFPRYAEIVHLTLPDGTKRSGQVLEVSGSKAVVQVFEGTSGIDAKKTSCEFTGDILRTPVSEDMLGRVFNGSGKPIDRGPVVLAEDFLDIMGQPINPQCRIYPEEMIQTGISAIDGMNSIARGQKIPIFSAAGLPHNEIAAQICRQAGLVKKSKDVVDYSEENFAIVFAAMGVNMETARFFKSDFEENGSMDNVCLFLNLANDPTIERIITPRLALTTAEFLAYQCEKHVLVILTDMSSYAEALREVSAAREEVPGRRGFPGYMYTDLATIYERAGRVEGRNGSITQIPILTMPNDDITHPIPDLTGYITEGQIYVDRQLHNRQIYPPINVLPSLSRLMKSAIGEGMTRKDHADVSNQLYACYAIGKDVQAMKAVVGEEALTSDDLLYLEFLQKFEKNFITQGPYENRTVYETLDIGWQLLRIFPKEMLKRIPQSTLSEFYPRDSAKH

CCCCC/C=C\C/C=C\C/C=C\C/C=C\CCCC(=O)NCCO [AEA, anandamide, reference compound]
SILAC ratio Atp6v1b2 ([1]; competitor 200 μM): 1.1
SILAC ratio, Vgf ([2]; competitor 200 μM): 1.0
SILAC ratio, Tmed1 ([3]; competitor 200 μM): 2.1
SILAC ratio, VDAC1 (P21796) ([4]; competitor 200 μM): 1.1
SILAC ratio, Atl2 ([5]; competitor 200 μM): 2.0
SILAC ratio, Hadha ([6]; competitor 200 μM): 2.3
SILAC ratio Sec63 ([7]; competitor 200 μM): 1.5
SILAC ratio, LPCAT3 (Q6P1A2) ([8]; competitor 200 μM): 1.4
SILAC ratio, Lpcat3 ([8]; competitor 200 μM): 1.4
SILAC ratio Eif3f ([9]; competitor 200 μM): 1.4
SILAC ratio, SEC11A (P67812) ([10]; competitor 200 μM): 1.9
SILAC ratio, Sec11a ([10]; competitor 200 μM): 1.9

C=CCN(C)CCCCCCOc1ccc(C(=O)c2ccc(Br)cc2)c(F)c1 [Ro 48-8071, reference compound]
SILAC ratio Atp6v1b2 ([1]; competitor 25 μM): 0.6
SILAC ratio, Vgf ([2]; competitor 25 μM): 0.9
SILAC ratio, Tmed1 ([3]; competitor 25 μM): 1.2
SILAC ratio, VDAC1 (P21796) ([4]; competitor 25 μM): 1.0
SILAC ratio, Atl2 ([5]; competitor 25 μM): 1.2
SILAC ratio, Hadha ([6]; competitor 25 μM): 1.0
SILAC ratio Sec63 ([7]; competitor 25 μM): 1.0
SILAC ratio, LPCAT3 (Q6P1A2) ([8]; competitor 25 μM): 1.1
SILAC ratio, Lpcat3 ([8]; competitor 25 μM): 1.1
SILAC ratio Eif3f ([9]; competitor 25 μM): 0.9
SILAC ratio, SEC11A (P67812) ([10]; competitor 25 μM): 1.6
SILAC ratio, Sec11a ([10]; competitor 25 μM): 1.6

CN1CCN(C(=O)c2c(-c3ccccc3)c3cc([N+](=O)[O-])ccc3n2C)CC1 [KML110, (1-Methyl-5-nitro-3-phenyl-1H-indol-2-yl)(4-methylpiperazin-1-yl)methanone]
SILAC ratio Atp6v1b2 ([1]; competitor 25 μM): 1.2
SILAC ratio, Vgf ([2]; competitor 25 μM): 1.4
SILAC ratio, Tmed1 ([3]; competitor 25 μM): 1.6
SILAC ratio, Atl2 ([5]; competitor 25 μM): 1.3
SILAC ratio, Hadha ([6]; competitor 25 μM): 2.0
SILAC ratio Sec63 ([7]; competitor 25 μM): 1.5
SILAC ratio, Lpcat3 ([8]; competitor 25 μM): 1.3
SILAC ratio Eif3f ([9]; competitor 25 μM): 1.3
SILAC ratio, Sec11a ([10]; competitor 25 μM): 1.6

O=C(/C=C/c1cccnc1)NCCCCC1CCN(C(=O)c2ccccc2)CC1 [FK-866, reference compound]
SILAC ratio Atp6v1b2 ([1]; competitor 25 μM): 1.6
SILAC ratio, Vgf ([2]; competitor 25 μM): 1.1
SILAC ratio, Tmed1 ([3]; competitor 25 μM): 1.3
SILAC ratio, VDAC1 (P21796) ([4]; competitor 25 μM): 1.0
SILAC ratio, Atl2 ([5]; competitor 25 μM): 1.1
SILAC ratio, Hadha ([6]; competitor 25 μM): 6.2
SILAC ratio Sec63 ([7]; competitor 25 μM): 1.1
SILAC ratio, LPCAT3 (Q6P1A2) ([8]; competitor 25 μM): 2.3
SILAC ratio, Lpcat3 ([8]; competitor 25 μM): 2.3
SILAC ratio Eif3f ([9]; competitor 25 μM): 1.3
SILAC ratio, SEC11A (P67812) ([10]; competitor 25 μM): 1.1
SILAC ratio, Sec11a ([10]; competitor 25 μM): 1.1

CN1CCN(C(=O)c2[nH]c3ccc([N+](=O)[O-])cc3c2-c2ccccc2)CC1 [MJN228, (4-Methylpiperazin-1-yl)(5-nitro-3-phenyl-1H-indol-2-yl)methanone]
SILAC ratio Atp6v1b2 ([1]; competitor 10 μM): 1.2
SILAC ratio Atp6v1b2 ([1]; competitor 25 μM): 1.1
SILAC ratio Atp6v1b2 ([1]; competitor 50 μM): 0.9
SILAC ratio, Vgf ([2]; competitor 10 μM): 1.3
SILAC ratio, Vgf ([2]; competitor 25 μM): 1.3
SILAC ratio, Vgf ([2]; competitor 50 μM): 1.1
SILAC ratio, Vgf ([2]; competitor 100 μM): 1.0
SILAC ratio, Tmed1 ([3]; competitor 10 μM): 1.1
SILAC ratio, Tmed1 ([3]; competitor 25 μM): 1.6
SILAC ratio, Tmed1 ([3]; competitor 50 μM): 2.1
SILAC ratio, Tmed1 ([3]; competitor 100 μM): 2.2
SILAC ratio, VDAC1 (P21796) ([4]; competitor 25 μM): 1.1
SILAC ratio, Atl2 ([5]; competitor 10 μM): 1.1
SILAC ratio, Atl2 ([5]; competitor 25 μM): 1.4
SILAC ratio, Atl2 ([5]; competitor 50 μM): 1.6
SILAC ratio, Hadha ([6]; competitor 10 μM): 1.4
SILAC ratio, Hadha ([6]; competitor 25 μM): 1.7
SILAC ratio, Hadha ([6]; competitor 50 μM): 2.0
SILAC ratio, Hadha ([6]; competitor 100 μM): 2.9
SILAC ratio Sec63 ([7]; competitor 10 μM): 1.4
SILAC ratio Sec63 ([7]; competitor 25 μM): 1.5
SILAC ratio Sec63 ([7]; competitor 50 μM): 1.8
SILAC ratio Sec63 ([7]; competitor 100 μM): 1.8
SILAC ratio, Lpcat3 ([8]; competitor 10 μM): 1.2
SILAC ratio, Lpcat3 ([8]; competitor 25 μM): 1.2
SILAC ratio, Lpcat3 ([8]; competitor 50 μM): 1.4
SILAC ratio, Lpcat3 ([8]; competitor 100 μM): 1.5
SILAC ratio Eif3f ([9]; competitor 10 μM): 1.0
SILAC ratio Eif3f ([9]; competitor 25 μM): 1.0
SILAC ratio Eif3f ([9]; competitor 100 μM): 0.9
SILAC ratio, SEC11A (P67812) ([10]; competitor 25 μM): 1.6
SILAC ratio, Sec11a ([10]; competitor 10 μM): 1.2
SILAC ratio, Sec11a ([10]; competitor 25 μM): 1.6
SILAC ratio, Sec11a ([10]; competitor 50 μM): 1.7
SILAC ratio, Sec11a ([10]; competitor 100 μM): 2.3
